Assay type in all cases: cell-based
Data set [1] has as its system Hepatitis B virus. The data set can be described thus: Effect of alkyl lipids on HBV replication in HBV persistently infected human HEP G2 cells (Table 6). The conditions noted are these: for Intracellular HBV DNA, Mono (episomal 3.2-3.8 Kb HBV genomes) / Intracellular HBV DNA, RI (replication intermediates): nine days. As to the method:
Cells were treated with a particular compound for nine days at 37° C. Analysis of intracellular HEIV DNA was done 24 hours following the ninth day of treatment. […] The levels of integrated HBV DNA in each cellular DNA preparation were used to calculate the levels of episomal 3.2-3.8 Kb HBV genomes (Mono) and HBV DNA replication intermediates (RI). A zero value indicates an undetectable level of HBV virion DNA. The sensitivity cut-off was 0.1 pg DNA/ml of culture medium.

Data set [2] in a line: Cytotoxicity in HBV persistently infected human HEP G2 cells, neutral red dye uptake (Table 5). To be noted: human, hep-g2 cells, Trial 2, read-out: % of Control Neutral Red Dye Uptake. The source says:
(§1) Initially, evaluations of the alkyl lipids were done to determine whether the compounds were cytotoxic to the cells at concentrations having anti-HBV activity. The assay methodology is szt forth in Korba and Germ, Antiviral Res., 19, 55-70 (1992), incorporated by reference herein. Briefly, these cell cytotoxicity evaluations were done in 96-well plates seeded with HEP-G2 cell monolayers. The hepatoblastoma cell line HEP-G2 transfected with a plasmid carrying the gene that confers resistance to […] and four 5'-3' tandem copies of the Hepatitis B virus genome was obtained from Dr. George Acs. Proc. Natl. Acad. Sci. USA, 84, 1005-1009 (1987). Serial concentrations of compound were added to the RPMI-1640 growth medium and the growth medium was added to the 96-well plates containing the cell monolayers. The cells were incubated for a total of nine days at 37° C. The compound-containing medium was periodically replaced. Each compound was tested at four serial concentrations in triplicate. After nine days of treatment and incubation, 0.01% neutral red dye (Sigma, Inc.) was added to the overlay medium. Cell cytotoxicity was quantitated by measuring the average A510. Values in Table 1 represent the percentage of average A510 values (±standard deviation) relative to nine non-treated control wells.
An analysis was periormed to determine the cytotoxicity of the following compounds in human HEP-G2 cells persistently infected with HBV: CP-51, CP-49, CP-9, CP-126, lyso PAF and CP-7. 2'-3'-Dideoxycytidine (ddC) was used as a control in this cytotoxicity analysis. The toxicity analyses were performed in 96-well flat bottomed tissue culture plates following the same procedure set forth in Example 6 above. Each compound was tested at four concentrations, each in triplicate cultures. Uptake of neutral red dye was used to determine the relative level of toxicity. The absorbance of internalized dye at […] (A510) was used for the quantitative analysis.
Values are presented as a percentage of the average A510 values (± standard deviations) in ninz separate cultures of untreated cells maintained on the same 96-well plate as the test compounds. The percentage of dye uptake in the nine control cultures was 100±1.

The subject of data set [3] is Hepatitis B virus. As to the kind of experiment: Effect on synthesis of antigen markers in persistently infected human HEP G2 cell cultures (Table 7). To be noted: nine days; for activity at 10 µM: Hepatitis B virus, HepG2, 216 h. As to the method:
Cells were treated with compound for nine days at 37° C. The overlay medium was harvested to measure levels of HBsAg, HBeAg and virion DNA. HBsAg and HBeAg were assayed by EIA (Abbott Laboratories). Virion DNA levels were measured as described in section B above.

Data set [4] is described as follows: Cytotoxicity of alkyl lipids, neutral red dye uptake (Table 1). To be noted: human, hep-g2 cells.
Excerpt: as §1

Data set [5] deals with Hepatitis B virus. The data set can be described thus: Anti-hepatitis B virus activity in HEP-G2 cells persistently infected with HBV (Table 2). The conditions noted are these: 10 μM; for activity against HBV-induced virion DNA and HBeAg syntheses: in words; for activity at 10 µM: Hepatitis B virus, HepG2, 216 h, 9 days treatment. Here is the method:
HEP-G2 cells persistently infected with HBV were treated daily with fresh D-MEM containing 20% FBS and 10 μM compound. After 9 days incubation and treatment, the overlay medium was harvested to assay the quantity of Hepatitis B virus s antigen (HBsAg) and HBeAg by EIA (Abbott Laboratories). The overlay medium was diluted to levels of antigen in the linear range of the assay. Standard curves using dilutions of positive HBsAg and HBeAg controls were included in each assay. Virion DNA was assayed using the method set forth in Korba and Gerin, Antiviral Res., 19, 5,5-70 (1992), incorporated by reference herein. HBV DNA was extracted from the overlay medium containing virus particles and analyzed by a slot-blot hybridization technique using ^32 P-labelled 3.2 Kb Eco R1 HBV DNA fragment by comparisons to HBV standards present on nitrocellulose filters using an AMBIS beta scanner. EC90 values (90% effective concentration, i.e., drug concentration which induces a 90% decrease in the levels of HBV DNA replication intermediates in treated versus control cells) were calculated by linear regression analysis. The relative levels of HBsAg, HBeAg and virion DNA were calulated as a percentage of the average levels obtained from the untreated controls.

Where [6] appears, read: read-out: Relative Level of HBeAg.
Setting [7] is: read-out: Relative Level of HBsAg.
The mark [8] stands for this setting: read-out: Relative Level of Virion DNA.

This is an account of results in patent publication US6030960A, “Method of treating hepatitis virus infections” (priority 1998, dated 2000).

Several values for one entry are separate records, joined by “and”; a condition that tells them apart may be missing. Equal values may be shown once.

In the case of `CCCCCCCCCCCCCCCCCCOCC(O)COP(=O)([O-])OCC[N+](C)(C)C` (racemic) [lyso PAF, rac-3-octadecyloxy-2-hydroxy-1-propyl phosphocholine], the “HBV Virion DNA” value with Hepatitis B virus [1] (0.1 μM, Day 0) is 62 pg/ml Culture Medium and 60 pg/ml Culture Medium and 81 pg/ml Culture Medium and 57 pg/ml Culture Medium; in the data set with Hepatitis B virus [1] (0.1 μM, Day 3), 77 pg/ml Culture Medium and 81 pg/ml Culture Medium and 70 pg/ml Culture Medium and 69 pg/ml Culture Medium; in the data set with Hepatitis B virus [1] (0.1 μM, Day 6), 80 pg/ml Culture Medium and 79 pg/ml Culture Medium and 64 pg/ml Culture Medium and 88 pg/ml Culture Medium; with Hepatitis B virus [1] (0.1 μM, Day 9), 84 pg/ml Culture Medium and 96 pg/ml Culture Medium and 67 pg/ml Culture Medium and 92 pg/ml Culture Medium; in the data set on Hepatitis B virus [1] (1 μM, Day 0), 52 pg/ml Culture Medium and 51 pg/ml Culture Medium and 63 pg/ml Culture Medium and 65 pg/ml Culture Medium; in the data set with Hepatitis B virus [1] (1 μM, Day 3), 69 pg/ml Culture Medium and 61 pg/ml Culture Medium and 53 pg/ml Culture Medium. Also, the “HBV Virion DNA” value in the data set on Hepatitis B virus [1] (1 μM, Day 6) was 72 pg/ml Culture Medium and 79 pg/ml Culture Medium and 81 pg/ml Culture Medium; in the data set on Hepatitis B virus [1] (1 μM, Day 9) it was 74 pg/ml Culture Medium and 83 pg/ml Culture Medium and 59 pg/ml Culture Medium and 88 pg/ml Culture Medium; in the data set on Hepatitis B virus [1] (10 μM, Day 0) it was 52 pg/ml Culture Medium and 62 pg/ml Culture Medium and 60 pg/ml Culture Medium and 68 pg/ml Culture Medium; in the data set on Hepatitis B virus [1] (10 μM, Day 3) it was 65 pg/ml Culture Medium and 71 pg/ml Culture Medium and 51 pg/ml Culture Medium and 50 pg/ml Culture Medium; in the data set on Hepatitis B virus [1] (10 μM, Day 6), 36 pg/ml Culture Medium and 34 pg/ml Culture Medium and 30 pg/ml Culture Medium and 32 pg/ml Culture Medium; with Hepatitis B virus [1] (10 μM, Day 9, 0 = undetectable, cut-off 0.1 pg DNA/ml), 14 pg/ml Culture Medium and 18 pg/ml Culture Medium and 11 pg/ml Culture Medium and 13 pg/ml Culture Medium. Besides, the “Intracellular HBV DNA, Mono (episomal 3.2-3.8 Kb HBV genomes)” value with Hepatitis B virus [1] (0.1 μM) is 2.5 pg/μg Cell DNA and 2.1 pg/μg Cell DNA and 2.0 pg/μg Cell DNA; in the data set with Hepatitis B virus [1] (1 μM), 2.6 pg/μg Cell DNA and 2.9 pg/μg Cell DNA and 2.4 pg/μg Cell DNA; with Hepatitis B virus [1] (10 μM), 2.0 pg/μg Cell DNA and 2.4 pg/μg Cell DNA and 2.6 pg/μg Cell DNA and 2.8 pg/μg Cell DNA. The “Intracellular HBV DNA, RI (replication intermediates)” value in the data set on Hepatitis B virus [1] (0.1 μM) is 84 pg/μg Cell DNA and 96 pg/μg Cell DNA and 67 pg/μg Cell DNA and 71 pg/μg Cell DNA; in the data set on Hepatitis B virus [1] (1 μM), 74 pg/μg Cell DNA and 83 pg/μg Cell DNA and 59 pg/μg Cell DNA and 84 pg/μg Cell DNA; with Hepatitis B virus [1] (10 μM) it was 15 pg/μg Cell DNA and 22 pg/μg Cell DNA and 18 pg/μg Cell DNA and 21 pg/μg Cell DNA. For the same molecule, the viability at 216 h, 3 µM in data set [2] (3 μM) turned out to be 98 ± 2%. For the same molecule, in data set [2] (10 μM), the viability at 216 h, 10 µM was determined as 99 ± 1%. Moreover, the viability at 216 h, 30 µM in data set [2] (30 μM) amounted to 98 ± 2%. In data set [2] (100 μM), the viability at 216 h, 100 µM turned out to be 40 ± 6%. Besides, in the data set on Hepatitis B virus [3] (10 μM, 12960 min), the “Relative Level of HBeAg” value is 50 % of Untreated Control. Besides, in the data set on Hepatitis B virus [3] (10 μM, 12960 min), the “Relative Level of HBsAg” value is listed as 80 % of Untreated Control. Besides, in the data set with Hepatitis B virus [3] (10 μM, 12960 min), the “Relative Level of Virion DNA” value is recorded as 15 % of Untreated Control. The activity at 10 µM is 45% in the data set with Hepatitis B virus [3] (read-out: Relative Level of HBeAg, 10 μM); 78% in the data set with Hepatitis B virus [3] (read-out: Relative Level of HBsAg, 10 μM); 13% in the data set on Hepatitis B virus [3] (read-out: Relative Level of Virion DNA, 10 μM).

In the case of `CCCCCCCCCCCCCCCC(=O)NCC(COP(=O)([O-])OCC[N+](C)(C)C)OC` (centres unmarked) [CP-48], in data set [4], the cytotoxicity at 216 h, 30 µM turned out to be 39%; the viability at 216 h, 3 µM was 102 ± 1%; the viability at 216 h, 10 µM came to 97 ± 1%; the viability at 216 h, 30 µM was 61 ± 2%. In addition, the viability at 216 h, 100 µM in data set [4] worked out at 24 ± 1%. Further, the “activity against HBV-induced virion DNA and HBeAg syntheses” value in the data set with Hepatitis B virus [5] is “no significant activity”. In addition, the activity at 10 µM in the data set with Hepatitis B virus [5] (setting [6]) is 88%. For the same molecule, in the data set on Hepatitis B virus [5] (setting [7]), the activity at 10 µM worked out at 73%. Moreover, the activity at 10 µM with Hepatitis B virus [5] (setting [8]) worked out at 96%.

Consider `CCCCCCCCCCCCCCCCCC(=O)NCC(COP(=O)([O-])OCC[N+](C)(C)C)OC` (centres unmarked) [CP-50], for which, in data set [4], the cytotoxicity at 216 h, 30 µM amounted to 0%; the cytotoxicity at 216 h, 100 µM worked out at 5%; the viability at 216 h, 3 µM is 97 ± 2%; the viability at 216 h, 10 µM was 99 ± 2%. Besides, in data set [4], the viability at 216 h, 30 µM was 100 ± 3% and the viability at 216 h, 100 µM was determined as 95 ± 2%. Besides, in the data set on Hepatitis B virus [5], the “activity against HBV-induced virion DNA and HBeAg syntheses” value is “no significant activity”. For the same molecule, in the data set on Hepatitis B virus [5] (setting [6]), the activity at 10 µM is 93%. Further, the activity at 10 µM in the data set on Hepatitis B virus [5] (setting [7]) came out at 104%. The activity at 10 µM in the data set on Hepatitis B virus [5] (setting [8]) stood at 88%.
